Assay results taken from US7608577B2, “Peptidyl ketones as inhibitors of DPIV” (OSI Pharmaceuticals, Inc., priority 2001, dated 2009).

Legend:
Type in all cases: biochemical
[1] = molecular target: T1, dipeptidyl peptidase IV from porcine kidney (Sus scrofa, UniProt P22411); assay: Ki determination, DPIV inhibition (inhibitor released from prodrug by APN); conditions: for Ki: porcine kidney DPIV, substrate Gly-Pro-pNA, APN added to release inhibitor, HEPES pH7.6, read-out: Ki; for T1/2 (half-life, from enzyme activity versus reaction time): same assay as Ki, unstable competitive inhibitor
T1 construct: dipeptidyl peptidase IV from porcine kidney with a specific activity against glycylprolyl-4-nitroaniline of 37.5 U/mg; from tissue; host or cells: porcine kidney
T1 sequence (P22411 whole entry): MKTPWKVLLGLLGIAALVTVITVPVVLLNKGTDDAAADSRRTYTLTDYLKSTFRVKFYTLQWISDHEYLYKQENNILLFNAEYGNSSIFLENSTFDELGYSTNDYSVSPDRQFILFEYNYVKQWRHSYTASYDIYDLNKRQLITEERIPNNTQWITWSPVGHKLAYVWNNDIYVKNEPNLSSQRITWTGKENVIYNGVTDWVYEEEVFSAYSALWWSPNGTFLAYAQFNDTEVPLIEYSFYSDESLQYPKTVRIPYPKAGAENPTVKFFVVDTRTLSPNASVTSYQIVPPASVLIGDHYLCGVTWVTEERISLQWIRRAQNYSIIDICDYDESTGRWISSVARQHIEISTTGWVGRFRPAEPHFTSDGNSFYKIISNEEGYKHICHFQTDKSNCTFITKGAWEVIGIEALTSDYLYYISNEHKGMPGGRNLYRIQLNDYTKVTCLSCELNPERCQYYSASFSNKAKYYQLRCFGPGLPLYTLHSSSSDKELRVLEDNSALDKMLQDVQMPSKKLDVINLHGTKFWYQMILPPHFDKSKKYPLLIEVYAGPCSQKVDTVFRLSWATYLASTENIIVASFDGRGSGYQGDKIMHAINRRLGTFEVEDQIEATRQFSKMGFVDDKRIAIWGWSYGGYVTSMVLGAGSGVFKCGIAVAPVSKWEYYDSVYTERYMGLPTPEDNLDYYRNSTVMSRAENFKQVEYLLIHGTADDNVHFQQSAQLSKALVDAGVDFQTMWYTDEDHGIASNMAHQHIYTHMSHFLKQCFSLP
Description: 500 μl test compound in a concentration range of 1*10^−5 M-1*10^−11M were admixed with and 500 μl HEPES buffer (40 mM, pH7.6; ion strength=0.125) and 20 μl of diluted DPIV. Release of the inhibitor from the prodrug as well the monitoring reaction (DPIV-catalyzed hydrolysis of Gly-Pro-pNA) were started by addition of a mixture of 10 μl of APN stock solution (4.9 mg/ml, Sigma, Taufkirchen, Germany) with 250 μl of the substrate (Gly-Pro-pNA, 0.05-4 mM). Development of yellow color due to 4-nitroaniline release were monitored at λ=405 nm for up to 180 min using UV1 Spectrometer (ThermoSpectronic).
The Ki-values were calculated by fitting the first derivative of the time-progress curves using Graphit (v.4.0.13, Erithacus Software, Ltd, UK) and an equation for an unstable competitive inhibitor.
The half-life (t1/2) was calculated by plotting the enzyme activity versus reaction time.

[2] = molecular target: T2, Dipeptidyl peptidase I (DP I, cathepsin C) (Rattus norvegicus, UniProt P80067); assay: Cross reacting enzymes: dipeptidyl peptidase I; conditions: MES buffer pH5.6, 30° C.
T2 construct: purchased Qiagen GmbH, Hilden, Germany
T2 sequence (P80067 25-462): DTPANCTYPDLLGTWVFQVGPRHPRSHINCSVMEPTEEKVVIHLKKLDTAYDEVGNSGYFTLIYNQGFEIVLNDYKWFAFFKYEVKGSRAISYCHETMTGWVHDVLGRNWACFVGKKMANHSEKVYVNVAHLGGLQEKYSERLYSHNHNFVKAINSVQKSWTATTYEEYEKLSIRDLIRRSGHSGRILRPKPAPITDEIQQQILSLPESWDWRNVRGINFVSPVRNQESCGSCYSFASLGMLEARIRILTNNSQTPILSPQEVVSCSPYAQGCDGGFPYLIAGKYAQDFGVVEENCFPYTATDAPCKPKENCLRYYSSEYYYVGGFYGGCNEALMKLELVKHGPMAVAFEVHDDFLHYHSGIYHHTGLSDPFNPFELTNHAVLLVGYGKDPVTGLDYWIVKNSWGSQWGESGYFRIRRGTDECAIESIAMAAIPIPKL
Description: DP I or cathepsin C is a lysosomal cysteine protease which cleaves off dipeptides from the N-terminus of their substrates (Gutman, H. R. & Fruton, J. S., 1948, J. Biol: Chem., 174, 851-858). It is classified as a cysteine protease. The enzyme used was purchased from Qiagen (Qiagen GmbH, Hilden, Germany). In order to get a fully active enzyme, the enzyme was diluted 1000 fold in MES buffer pH5.6 (40 mM MES, 4 mM DTT, 4 mM KCl, 2 mM EDTA, 0.015% Brij) and pre-incubated for 30 min at 30° C.
50 μl solution with the test compounds in a concentration range of 1*10^−5 M-1*10^−7 M was admixed with 110 μl buffer-enzyme-mixture. The assay mixture was pre-incubated at 30° C. for 15 min. After pre-incubation, 100 μl histidylseryl-βnitroaniline (2*10^−5M) was added and measurement of yellow color development due to β-nitroaniline release was performed at 30° C. and […] for 10 min, using a plate reader (HTS7000 plus, Applied Biosystems, Weiterstadt, Germany).
The IC 50-values were calculated using Graphit 4.0.15 (Erithacus Software, Ltd., UK).

[3] = molecular target: T3, Acylamino acid-releasing enzyme (AARE) (Homo sapiens, UniProt P13798); assay: Cross reacting enzymes: AARE; conditions: substrate Acetyl-Met-AMC, pH 7.2
T3 sequence (P13798 1-732): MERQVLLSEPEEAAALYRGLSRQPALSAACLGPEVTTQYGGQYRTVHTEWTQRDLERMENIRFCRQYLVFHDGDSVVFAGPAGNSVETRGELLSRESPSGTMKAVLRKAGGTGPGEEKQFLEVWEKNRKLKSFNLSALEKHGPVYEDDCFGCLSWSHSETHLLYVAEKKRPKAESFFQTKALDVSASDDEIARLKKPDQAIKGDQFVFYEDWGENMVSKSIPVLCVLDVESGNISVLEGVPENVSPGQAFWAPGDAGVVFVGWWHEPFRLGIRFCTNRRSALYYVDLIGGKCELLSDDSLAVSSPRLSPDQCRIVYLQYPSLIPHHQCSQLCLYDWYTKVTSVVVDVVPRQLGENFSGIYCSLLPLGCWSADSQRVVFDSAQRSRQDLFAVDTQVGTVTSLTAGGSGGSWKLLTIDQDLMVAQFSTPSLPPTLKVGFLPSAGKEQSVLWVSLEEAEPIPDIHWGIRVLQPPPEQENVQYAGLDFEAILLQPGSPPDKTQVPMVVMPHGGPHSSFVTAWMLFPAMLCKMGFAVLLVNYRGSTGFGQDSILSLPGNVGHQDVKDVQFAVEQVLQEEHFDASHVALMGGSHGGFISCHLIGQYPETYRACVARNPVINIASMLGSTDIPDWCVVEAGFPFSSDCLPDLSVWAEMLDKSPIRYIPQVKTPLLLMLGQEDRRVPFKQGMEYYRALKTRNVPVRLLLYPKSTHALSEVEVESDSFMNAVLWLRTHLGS
Description: The assay mixture was pre-incubated at 30° C. for 15 min. After pre-incubation, 50 μl Acetyl-Met-AMC solution (0.54 mM) was added. Release of the AMC was measured at 30° C. using a NOVOstar fluorescence microplate reader (BMG) and excitation/emission wavelengths of 380/460 nm.
The IC50-values were calculated from the slopes of the progress curves using Graphit 4.0.15 (Erithacus Software, Ltd., UK).

Row | Structure (SMILES) | Ki [1] | T1/2 (half-life, from enzyme activity versus reaction time) [1] | IC50 [2] | AARE IC50 [3] | DP I IC50 [2]
1 | Br.CC(=O)OCC(=O)[C@@H]1CCCN1C(=O)[C@@H](NC(=O)[C@H](C)N)C(C)C [H-Ala-Val-Pro-CH2O—CO—CH3*HBr, 2-[(Acetyloxy-methyl)carbonyl]-1-N-[(L)-Alanyl-(L)-Valinyl]-(2S)-pyrrolidine hydrobromide] | 1.05 nM | 10.8 min | 120000 nM | no inhibition | –
2 | Br.CC(C)[C@H](NC(=O)[C@H](C)N)C(=O)N1CCC[C@H]1C(=O)COC(=O)c1ccccc1 [H-Ala-Val-Pro-CO—CH2O—CO—Ph*HBr, 2-[(Benzoyloxy-methyl)carbonyl]-1-N-[{(L)-Alanyl}-(L)-Valinyl]-(2S)-pyrrolidine hydrobromide] | 0.536 nM | 15.1 min | 316000 nM | no inhibition | –
3 | Br.CC(=O)[C@@H]1CCCN1C(=O)[C@@H](NC(=O)[C@H](C)N)C(C)C [H-Ala-Val-Pro-Me*HBr, 2-Methylcarbonyl-1-N-[(L)-Alanyl-(L)-Valinyl]-(2S)-pyrrolidine hydrobromide] | 47.6 nM | 12.4 min | – | no inhibition | no inhibition
